Results from US5714479A, “Endothelin antagonistic heteroaromatic ring-fused cyclopentene derivatives” (Banyu Pharmaceutical Co., Ltd., priority 1993, dated 1998).

Tests used:
human ETB receptor = assay: Endothelin binding inhibition test to human ET receptor (ETB); conditions: 1.1 μM; human cell membranes (SK-N-MC or Girardi heart cells)
Experimental: (§1) Endothelin binding inhibition test to human ET receptor
(§2) The human neuroblastoma SK-N-MC cells or the human Girardi heart cells purchased from Dainippon Seiyaku (Japan) were cultured in minimal essential medium supplemented with fetal calf serum. The cells were collected and homogenized in 10 mM MOPS buffer (pH 7.4) containing 154 mM NaCl, 10 mM KCl, 0.8 mM CaCl2 and 20% sucrose at 4° C. using a polytron homogenizer. The homogenate was then centrifuged at 1,000×gfor 15 minutes. The supernatant was centrifuged at 100,000×g for 1 hour at 4° C. Then the pellet was washed with 5 mM Hepes/Tris buffer (pH 7.4). The resulting membranes were incubated with [^125 I]endothelin-1 in the presence of each test compound or vehicle (1% dimethyl sulfoxide) in 50 mM Tris/HCl buffer (pH 7.4) containing 0.1 mM phenylmethanesulfonyl fluoride, 1 μM pepstatin, 2 μM leupeptin, 1 mM 1,10-phenanthroline, 1 mM EDTA, 10 μM CaCl2, 10 μM MgCl2 and 0.1% BSA in a total volume of 0.4 ml. After 4 hours incubation, cold 5 mM Hepes/Tris buffer (pH 7.4) containing 0.3% BSA (Buffer A) was added to the mixture. Free and bound [^125 I]endothelin-1 were separated by filtration using Whatman GF/C glass fiber filters. After the filtration, the filters were washed with buffer A, and the radioactivity on the filters was measured in a γ counter. Nonspecific binding was determined in the presence of 200 nM endothelin-1. […]

ETB receptor = assay: Endothelin binding inhibition test to ETB receptor (porcine cerebellum membranes, 125I-endothelin-1); conditions: at 1.1 μM
Experimental: Endothelin binding inhibition test to ETB receptor
The cerebellum of porcine was homogenized in a buffer solution of 10 mM MOPS, pH 7.4, at 4° C. by a polytron. To the homogenate, sucrose was added to a concentration of 20%, and the mixture was centrifuged at 1,000×g for 15 minutes, and the supernatant was further centrifuged at 10,000×g for 15 minutes. The supernatant thereof was further centrifuged at 90,000×g for 40 minutes. The membrane precipitate thereby obtained was suspended in a buffer solution of 5 mM HEPES/Tris, pH 7.4, at a concentration of 3.3 mg/ml.
(§3) Then, 16 μl of this membrane suspension was added to 340 μl of 50 mM tris/HCl buffer, pH 7.4, containing […] calcium chloride, 10 μM magnesium chloride, 0.1 mM PMSF, 1 μM pepstatin A, 2 μM leupeptin, 1 mM 1,10-phenanthroline and 0.1% bovine serum albumin. To this suspension, 4 μl of (A) endothelin-1 (for nonspecific binding; 0.2 μM as the final concentration), (B) buffer solution A (for total control binding), or (C) a test compound (1.1 μM as the final concentration), was added. Further, to each suspension, 40 μl of ^125 I-endothelin-1 (12000-18000 cpm) was added. […] Then, the radioactivity trapped by the glass filter was measured, and the ^125 I-endothelin-1 binding inhibition D (%) at 1.1 μM of the test compound was determined by the following equation. […]

ETA receptor = assay: Endothelin binding inhibition test to ETA receptor (porcine aorta smooth muscle membranes, 125I-endothelin-1); conditions: at 1.1 μM
Experimental: Endothelin binding inhibition test to ETA receptor
The smooth muscle tissue of porcine aorta was homogenized in a buffer solution of 10 mM MOPS, pH 7.4, at 4° C. by a polytron. To the homogenate, sucrose was added to a concentration of 20%, and the mixture was centrifuged at 1,000×g for 15 minutes, and the supernatant was further centrifuged at 10,000×g for 15 minutes. The supernatant thereof was further centrifuged at 90,000×g for 40 minutes. The membrane precipitate thereby obtained was suspended in a buffer solution of 5 mM HEPES/Tris, pH 7.4, at a concentration of 25 mg/ml.
as §3

human ETA receptor = assay: Endothelin binding inhibition test to human ET receptor (ETA); conditions: 1.1 μM; human cell membranes (SK-N-MC or Girardi heart cells)
Experimental: as §1, §2

[1] = tested on: isolated porcine coronary arteries; assay: Activities against endothelin-induced contraction of isolated porcine coronary arteries; parameters: species or system pig
Experimental: Activities against endothelin-induced contraction of isolated porcine coronary arteries
The coronary artery of pig was extracted, and a spiral preparation having a width of 1 mm and a length of 10 mm was prepared therefrom. The preparation having the endothelial cells denuded, was hanged in a 5 ml organ bath filled with a Krebs.Heneseleit solution saturated with a gas mixture of 95% O2 and 5% CO2, and a change in the tension was isometrically measured and recorded.
(§4) Endothelin-1 was added into the organ bath in a cumulatively increasing manner, whereby the influence of a compound of the present invention to the concentration-response curve for endothelin-1 was examined. The compound was added into the organ bath 20 minutes prior to the addition of endothelin-1.

[2] = tested on: isolated rabbit iliac arteries; assay: Activities against endothelin-induced contraction of isolated rabbit iliac arteries
Experimental: Activities against endothelin-induced contraction of isolated rabbit iliac arteries
The iliac artery of rabbit was isolated, and a spiral preparation having a width of 1 mm and a length of 10 mm was prepared therefrom. The preparation having the endothelial cells denuded, was placed in a 5 ml organ bath filled with a Krebs.Henseleit solution saturated with a gas mixture of 95% O2 and 5% CO2, and a change in the tension was isometrically measured and recorded.
as §4

[3] = 0.1 to 10 μM, rabbit iliac artery

| SMILES | Percent (%) inhibition of [125I]ET-1 specific binding to ETB (human ETB receptor) | 125I-endothelin-1 binding inhibition D (%) to ETB (ETB receptor) | 125I-endothelin-1 binding inhibition D (%) to ETA (ETA receptor) | Percent (%) inhibition of [125I]ET-1 specific binding to ETA (human ETA receptor) | effect on the isolated artery when applied alone [1] | influence on the concentration-response curve for endothelin-1 ([1]; 10 μM, added 20 minutes prior to endothelin-1, porcine coronary artery) | effect on maximum response to endothelin-1 ([1]; 10 μM, porcine coronary artery) | effect on the isolated artery when applied alone [2] | effect on maximum response to endothelin-1 [2, 3] | influence on the concentration-response curve for endothelin-1 [2, 3] |
| --- | --- | --- | --- | --- | --- | --- | --- | --- | --- | --- |
| COc1ccc([C@H]2c3ncccc3[C@@H](c3ccc4c(c3)OCO4)[C@@H]2C(=O)O)cc1 (relative stereo) [Compound 2-enantiomer A] | 80% | 80% | 99% | 99% | – | – | – | – | – | – |
| COc1ccc([C@H]2c3ncccc3[C@@H](c3ccc4c(c3)OCO4)[C@@H]2C(=O)O)cc1 (relative stereo) [Compound 2, (5RS,6SR,7SR)-6-Carboxy-5-(3,4-methylenedioxyphenyl)-7-(4-methoxyphenyl)cyclopenteno[1,2-b]pyridine] | – | – | – | – | showed no effects to the isolated coronary artery when applied alone | remarkably shifted the concentration-response curves of endothelin-1 to the right | did not affect the maximum response | showed no effects to the isolated iliac artery when applied alone | did not affect the maximum response | remarkably shifted the concentration-response curves of endothelin-1 to the right |
